# Results published in PubChem BioAssay (NCI).
# Several values for one entry are separate records, joined by “and”; a condition that tells them apart may be missing. Equal entries are not always repeated.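 The compound was tested at five concentrations on cells cultured in 96-well plates, with a 48-hour exposure period. At the GI50, growth is halved. Definition used: TGI = concentration required for complete inhibition of growth.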
# What was measured:
# Assay in all cases: growth of human tumour cells (NCI), 48 h
# [1] = system: 786-0 renal
# [2] = system: NCI-H23 lung
# [3] = system: TK-10 renal
# [4] = system: EKVX NSCLC
# [5] = system: MDA-MB-231 breast
# [6] = system: SF-295 CNS
# [7] = system: SK-MEL-2 melanoma
# [8] = system: RXF 393 renal
# [9] = system: CCRF-CEM leukemia
# [10] = system: MCF7 breast
Structure (SMILES),GI50 [1],TGI [1] [µM],GI50 [2],TGI [2] [µM],GI50 [3],TGI [3] [µM],GI50 [4],TGI [4] [µM],GI50 [5],TGI [5],GI50 [6],TGI [6] [µM],GI50 [7] [µM],TGI [7] [µM],GI50 [8],TGI [8],GI50 [9] [µM],TGI [9],GI50 [10],TGI [10]
COc1ccc(CCNc2nc3ccccc3c3[nH]c4ccccc4c23)cc1OC,1.7 µM,3.28,10.4 µM,24.6,4.47 µM,17,22.6 µM,45.3,2.21 µM,8.03 µM,2.55 µM,9.02,1.98,3.77,1.47 µM,3.15 µM,1.87,13.8 µM,2.2 µM,5.32 µM
O=C(Nc1nc2ncn(CCOC(=O)c3ccccc3)c2c(=O)[nH]1)c1ccccc1,,> 100,,> 100,,> 100,,> 100,,> 100 µM,,54.2,,> 100,,> 93.2 µM,,> 100 µM,,> 100 µM
COc1c(O)c2ccccc2c2cc(O)ccc12,,25.1,,10.6,,61.2,,32.9,,19.4 µM,,23.5,,11.9,,22.9 µM,,73.8 µM,,8.22 µM
N#Cc1c(N)nn(C(=O)c2ccc(NC(=O)c3ccccn3)cc2)c1-c1ccc(Cl)cc1,2.97 µM,8.54,3.77 µM,34.8,3.65 µM,19.4,6.96 µM,> 100,11.6 µM,> 100 µM,3.06 µM,15.7,71.6,> 100,3.11 µM,24.5 µM,8.86,> 100 µM,2.71 µM,> 100 µM
Cc1cc2c(-c3nc4ccccc4[nH]3)c(O)c(O)cc2c(O)c1-c1c(C)cc2c(-c3nc4ccccc4[nH]3)c(O)c(O)cc2c1O,0.0801 µM,1.01,0.0289 µM,1.07,0.0386 µM,> 42.1,0.0315 µM,> 28.9,0.0835 µM,> 38.9 µM,0.0227 µM,1.58,0.0993,10.6,0.0434 µM,3.56 µM,0.0113,> 50 µM,0.018 µM,6.84 µM
Cc1ncc(C(=O)Nc2ccc(CN3CCN(C)CC3)c(C(F)(F)F)c2)cc1C#Cc1c(N)ncc2ccc(C#N)cc12,1.19 µM,3.06,0.936 µM,8.58,3.08 µM,12.2,0.54 µM,> 22.8,0.161 µM,1.89 µM,> 26.7 µM,> 50,1.74,17.5,0.327 µM,1.29 µM,1.41,16.5 µM,0.693 µM,11.4 µM
COC1CC(OC2OC(CO)C(O)C(O)C2O)/C(=C\C#N)C(O)C1OC (stereo unspecified),,> 100,,> 100,,> 100,,> 100,,> 100 µM,,> 100,,> 100,,> 100 µM,,> 100 µM,,> 100 µM
NC(=O)C/C=C/CC(N)=O,,> 100,,> 100,,> 100,,> 100,,> 100 µM,,> 100,,> 100,,> 100 µM,,> 100 µM,,> 100 µM
CCc1cc(C(N)=O)ccc1-n1nc(C(C)C)c2c(-n3cnc(-c4cnn(C)c4)c3)ccnc21,5.67 µM,> 100,1.14 µM,> 100,1.23 µM,> 100,16.3 µM,> 100,3.25 µM,> 100 µM,0.992 µM,10.3,4.41,> 100,3.09 µM,> 100 µM,0.752,> 100 µM,0.443 µM,> 100 µM
O=P(O)(O)OC1C(OP(=O)(O)O)C(OP(=O)(O)O)C(OP(=O)(O)O)C(OP(=O)(O)O)C1OP(=O)(O)O (stereo unspecified),> 2000 µM,> 2000,> 2000 µM,> 2000,> 1360 µM,> 2000,> 100 µM,> 2000,> 2000 µM,> 2000 µM,> 2000 µM,> 2000,> 2000,> 2000,> 500 µM and 1720 µM,> 2000 µM,> 100,> 2000 µM,> 2000 µM,> 2000 µM
Cn1ccnc1CCc1ccc(F)cc1F,,> 100,,> 100,,> 100,,> 100,,> 100 µM,,> 100,,> 100,,> 100 µM,,> 100 µM,,> 100 µM
COc1ccc(C2SC(N)=Nc3c2c(C)nn3C(=O)c2ccncc2)cc1 (stereo unspecified),,> 100,,> 100,,> 100,,> 100,,> 100 µM,,> 100,,> 100,,> 100 µM,,> 100 µM,,> 100 µM
COc1ccccc1/C=C1\COc2ccc(O)c(O)c2C1=O,2.2 µM,6.72,2.04 µM,6.11,3.08 µM,> 100,3 µM,46.1,2.24 µM,10.2 µM,4.49 µM,> 100,2.72,8.67,1.51 µM,2.97 µM,0.286,2.11 µM,0.36 µM,> 100 µM
CC1(CCCC2(C)CCNC2=O)OCCO1 (stereo unspecified),,> 10,,> 10,,> 10,,> 10,,> 10 µM,,> 10,,> 10,,> 10 µM,,> 10 µM,,> 10 µM
COc1ccc(C(=O)/C=C/c2ccc(Cl)cc2)cc1S(N)(=O)=O,1.74 µM,3.69,2.54 µM,7.06,2.47 µM,7.81,4.56 µM,18.4,3.48 µM,11.7 µM,3.04 µM,10.2,12.4,25.7,1.98 µM,3.97 µM,3.35,9.35 µM,1.3 µM,6.77 µM
Clc1ccc(Cl)c(N/N=C\c2c[nH]c3ccccc23)c1,12.8 µM,25.4,14.1 µM,29.9,12 µM,26.8,2.36 µM,15.5,2.05 µM,8.07 µM,13.8 µM,70.4,13.1,26.7,10.3 µM,24.8 µM,0.107,11.7 µM,> 100 µM,> 100 µM
CC(=O)OCC1OC(n2cc(F)c(=O)[nH]c2=O)C(OC(C)=O)C1OC(C)=O (stereo unspecified),,> 94.5,,> 100,,> 100,,> 100,,> 56.2 µM,,> 100,,> 100,,99.2 µM,,> 100 µM,,> 45.3 µM
COc1ccc(CN2CCc3c(Cl)nc(N)nc3C2=O)c(OC)c1,23.9 µM,48.1,15.8 µM,32.2,33.1 µM,99.3,16.8 µM,61.7,14.8 µM,30.3 µM,40.3 µM,> 100,16.6,34.8,22.7 µM,52.9 µM,17,56.6 µM,15.7 µM,61.3 µM
O=c1c(Cl)nsnc1Cl,,3.32,,50.5,,7.93,,58.2,,41.8 µM,,40.8,,> 100,,24.8 µM,,3.27 µM,,31.5 µM
COc1cc([C@@H]2c3cc4c(cc3[C@H](OC3OC5COC(c6ccccc6)OC5C(O)C3O)[C@H]3COC(=O)[C@H]23)OCO4)cc(OC)c1OC (stereo partly specified),0.594 µM,19.6,0.418 µM,14.5,1.13 µM,5.51,0.426 µM,24.2,0.422 µM,29 µM,0.27 µM,,0.978,5.64,0.264 µM,0.879 µM,0.57,,0.279 µM,4.2 µM
[O-][n+]1onc2c3nn(-c4ccccc4)nc3ccc21,,> 100,,> 100,,> 88.7,,> 100,,> 100 µM,,> 100,,> 100,,> 100 µM,,> 100 µM,,> 100 µM
O=C1CCC/C=C\C[C@H]2C=C(Cl)C(=O)/C2=C/C[C@H](CCCCC(F)(F)F)OC(=O)CCC/C=C\C[C@H]2C=C(Cl)C(=O)/C2=C/C[C@H](CCCCC(F)(F)F)O1,0.18 µM,0.475,0.236 µM,0.868,0.346 µM,1.89,0.283 µM,1.18,0.194 µM,0.504 µM,0.292 µM,1.19,0.329,2.11,0.134 µM,0.279 µM,0.178,0.884 µM,0.176 µM,0.973 µM
Cc1cc(Cl)n2c(nc3ccccc32)c1C#N,0.768 µM,6.48,0.422 µM,2.55,0.898 µM,10.9,7.84 µM,24.8,0.649 µM,4.58 µM,0.521 µM,4.91,0.396,2.25,0.854 µM,2.66 µM,0.0485,,0.158 µM,2.3 µM
O=C(Cn1ccnc1[N+](=O)[O-])NCCO,,> 100,,> 100,,> 100,,> 100,,> 100 µM,,> 100,,> 100,,> 100 µM,,> 100 µM,,> 100 µM
C#Cc1cccc(NC(=O)Nc2ccccc2NC(=O)CCl)c1,29.7 µM,> 82.5,16.9 µM,48.5,25.5 µM,> 82.5,19.3 µM,66.2,16.6 µM,34.6 µM,39.4 µM,> 82.5,22,63.9,12.1 µM,26.1 µM,20.8,> 82.5 µM,16.6 µM,> 82.5 µM
CC/C=C/[C@@H]1C=C[C@@H]2CCC[C@H]2[C@@H]1CC[C@H](O)[C@H](C)N,1.72 µM,3.09,1.78 µM,3.98,1.36 µM,2.68,15.2 µM,31.9,1.78 µM,3.22 µM,1.75 µM,3.9,2.11,4.73,1.94 µM,4.17 µM,4.65,84.3 µM,1.52 µM,2.85 µM
COc1ccc(C(=O)c2cc3c(N)c(C(=O)Nc4cccc(Cl)c4)sc3nc2C)cc1,2.67 µM,> 33.3,2.53 µM,> 33.3,> 33.3 µM,> 33.3,2.06 µM,> 33.3,2.55 µM,> 33.3 µM,1.08 µM,> 33.3,11.2,> 33.3,0.655 µM,2.08 µM,1.2,> 33.3 µM,1.25 µM,> 33.3 µM
Cc1cc(O)c2c(c1)C[C@@H](O)C1=C2C(=O)c2c(O)ccc(OC3CC(O)C(OC4CC(OC5CCC(OC6CC(O)C(OC7CC(OC8CCC(O)C(C)O8)C(O)C(C)O7)C(C)O6)C(C)O5)C(O)C(C)O4)C(C)O3)c2C1=O (stereo partly specified),0.49 µM and 0.28 µM,,0.343 µM and 0.8 µM,,2.13 µM and 2.93 µM,,1.7 µM and 1.37 µM,,0.433 µM and 0.251 µM,0.259 µM and 1.49 µM and 0.549 µM,1.5 µM and 3.02 µM,,0.89,,0.302 µM and 0.29 µM,0.108 µM and 0.535 µM and 0.751 µM,0.0386,0.255 µM and 0.266 µM,0.394 µM and 0.921 µM,0.599 µM and 1.69 µM and 2.32 µM
C=C1C(=O)OC(CCCCCCCC)C1C(=O)O (stereo unspecified),18.2 µM,36.7,14.2 µM,29.2,18.9 µM,33.6,16.1 µM,31.2,17.7 µM,33.2 µM,17.6 µM,37.6,16.1,31.7,10.7 µM,23.2 µM,5.49,38.7 µM,12.6 µM,26.5 µM
